Data as given in paper PMC5988656, “Phase I studies of AZD1208, a proviral integration Moloney virus kinase inhibitor in solid and haematological cancers” (British Journal of Cancer, 2018).

Test: AML dose-escalation study: pharmacokinetics (plasma, urine)
Assay type: in vivo, human
Protocol: The schedules for collection of blood and urine samples for PK analyses in each cohort in both studies are described in Supplementary Table 1. When necessary for clinical response assessment in the AML study, a bone marrow sample for PK analysis was collected at Cycle 1, Day 28.
The concentration of AZD1208 in plasma and urine was determined by Covance, on behalf of Clinical Bioanalysis Alliance at AstraZeneca R&D, using a bioanalytical method. A volume of 0.05 ml of K2EDTA human plasma sample was extracted by liquid–liquid extraction using 0.7 ml of methyl tert-butyl ether. Approximately 100 µl of the supernatant was transferred, evaporated to dryness and reconstituted with 350 µl of 1:1 methanol:water, and a 5 µl injection was made to the high-performance liquid chromatography (HPLC) column. HPLC separations were performed on a Phenomenex LUNA C18 (50 × 2 mm, 5 µm) column using a mobile phase of 0.1% formic acid in water (A) and 0.1% formic acid in acetonitrile (B) at a flow rate of 0.6 ml/min and a column temperature of 40 °C. AZD1208-D5 was used as the internal standard. Detection was performed in a Sciex API4000 mass spectrometer, in a positive electrospray ionisation mode, using multiple reaction monitoring detection (AZD1208: 380.0–>248.1; AZD1208-D5: 385.0–>253.1).

N[C@@H]1CCCN(c2c(/C=C3\SC(=O)NC3=O)cccc2-c2ccccc2)C1 [AZD1208]
Percentage of patients with a lower accumulation ratio (240 mg): 0% | Percentage of patients with a lower accumulation ratio (900 mg): 67% | Patients with significantly lower exposure at steady state compared with the first dose (120–900 mg doses, 4/16 patients): 25% | Dose proportionality of Cmax and AUC0–24 (Cycle 1, Day 1): dose proportional | Tmax, median (Cycle 1, Day 1, 120 mg, n=3): 2.42 h | Tmax, median (Cycle 1, Day 1, 240 mg, n=6): 2.20 h | Tmax, median (Cycle 1, Day 1, 480 mg, n=6): 3.17 h | Tmax, median (Cycle 1, Day 1, 700 mg, n=7): 3.05 h | Tmax, median (Cycle 1, Day 1, 900 mg, n=9): 3.20 h | Gmean plasma concentration of AZD1208 (± SD) (Cycle 1, Day 1, 0.5 h post-dose, 120 mg, n=3): 85.8 (40.1, 183.9) ng ml | Gmean plasma concentration of AZD1208 (± SD) (Cycle 1, Day 1, 0.5 h post-dose, 240 mg, n=6): 158.3 (14.4, 1740.3) ng ml | Gmean plasma concentration of AZD1208 (± SD) (Cycle 1, Day 1, 0.5 h post-dose, 480 mg, n=6): 124.3 (67.6, 228.6) ng ml | Gmean plasma concentration of AZD1208 (± SD) (Cycle 1, Day 1, 0.5 h post-dose, 700 mg, n=7): 386.8 (93.3, 1603.6) ng ml | Gmean plasma concentration of AZD1208 (± SD) (Cycle 1, Day 1, 0.5 h post-dose, 900 mg, n=9): 251.5 (90.7, 697.2) ng ml | Gmean plasma concentration of AZD1208 (± SD) (Cycle 1, Day 1, 1 h post-dose, 120 mg, n=3): 321.3 (187.8, 549.9) ng ml | Gmean plasma concentration of AZD1208 (± SD) (Cycle 1, Day 1, 1 h post-dose, 240 mg, n=6): 540.4 (133.8, 2182.4) ng ml | Gmean plasma concentration of AZD1208 (± SD) (Cycle 1, Day 1, 1 h post-dose, 480 mg, n=6): 573.0 (248.3, 1322.0) ng ml | Gmean plasma concentration of AZD1208 (± SD) (Cycle 1, Day 1, 1 h post-dose, 700 mg, n=7): 883.8 (351.6, 2221.7) ng ml | Gmean plasma concentration of AZD1208 (± SD) (Cycle 1, Day 1, 1 h post-dose, 900 mg, n=9): 921.4 (373.1, 2275.6) ng ml | Gmean plasma concentration of AZD1208 (± SD) (Cycle 1, Day 1, 1.5 h post-dose, 120 mg, n=3): 774.5 (422.1, 1421.3) ng ml | Gmean plasma concentration of AZD1208 (± SD) (Cycle 1, Day 1, 1.5 h post-dose, 240 mg, n=6): 1098.6 (620.9, 1943.7) ng ml | Gmean plasma concentration of AZD1208 (± SD) (Cycle 1, Day 1, 1.5 h post-dose, 480 mg, n=6): 1243.2 (485.9, 3181.1) ng ml | Gmean plasma concentration of AZD1208 (± SD) (Cycle 1, Day 1, 1.5 h post-dose, 700 mg, n=7): 1849.6 (783.5, 4366.4) ng ml | Gmean plasma concentration of AZD1208 (± SD) (Cycle 1, Day 1, 1.5 h post-dose, 900 mg, n=9): 2106.0 (860.5, 5154.2) ng ml | Gmean plasma concentration of AZD1208 (± SD) (Cycle 1, Day 1, 2 h post-dose, 120 mg, n=3): 779.9 (508.9, 1195.3) ng ml | Gmean plasma concentration of AZD1208 (± SD) (Cycle 1, Day 1, 2 h post-dose, 240 mg, n=6): 1388.6 (1074.3, 1744.9) ng ml | Gmean plasma concentration of AZD1208 (± SD) (Cycle 1, Day 1, 2 h post-dose, 480 mg, n=6): 1852.3 (781.9, 4387.6) ng ml | Gmean plasma concentration of AZD1208 (± SD) (Cycle 1, Day 1, 2 h post-dose, 700 mg, n=7): 2640.6 (1438.6, 4847.0) ng ml | Gmean plasma concentration of AZD1208 (± SD) (Cycle 1, Day 1, 2 h post-dose, 900 mg, n=9): 3553.2 (2352.6, 5366.6) ng ml | Gmean plasma concentration of AZD1208 (± SD) (Cycle 1, Day 1, 3 h post-dose, 120 mg, n=3): 715.6 (415.5, 1232.6) ng ml | Gmean plasma concentration of AZD1208 (± SD) (Cycle 1, Day 1, 3 h post-dose, 240 mg, n=6): 1299.5 (967.1, 1746.2) ng ml | Gmean plasma concentration of AZD1208 (± SD) (Cycle 1, Day 1, 3 h post-dose, 480 mg, n=6): 2865.4 (1884.8, 4356.2) ng ml | Gmean plasma concentration of AZD1208 (± SD) (Cycle 1, Day 1, 3 h post-dose, 700 mg, n=7): 3112.3 (1814.6, 5337.9) ng ml | Gmean plasma concentration of AZD1208 (± SD) (Cycle 1, Day 1, 3 h post-dose, 900 mg, n=9): 3574.9 (1521.4, 8400.4) ng ml | Gmean plasma concentration of AZD1208 (± SD) (Cycle 1, Day 1, 6 h post-dose, 120 mg, n=3): 546.6 (356.7, 837.6) ng ml | Gmean plasma concentration of AZD1208 (± SD) (Cycle 1, Day 1, 6 h post-dose, 240 mg, n=6): 1004.2 (822.5, 1226.0) ng ml | Gmean plasma concentration of AZD1208 (± SD) (Cycle 1, Day 1, 6 h post-dose, 480 mg, n=6): 2642.0 (1774.2, 3934.4) ng ml | Gmean plasma concentration of AZD1208 (± SD) (Cycle 1, Day 1, 6 h post-dose, 700 mg, n=7): 2846.5 (2115.2, 3830.6) ng ml | Gmean plasma concentration of AZD1208 (± SD) (Cycle 1, Day 1, 6 h post-dose, 900 mg, n=9): 4252.0 (2883.8, 6269.4) ng ml | Gmean plasma concentration of AZD1208 (± SD) (Cycle 1, Day 1, 8 h post-dose, 120 mg, n=3): 481.6 (308.4, 752.3) ng ml | Gmean plasma concentration of AZD1208 (± SD) (Cycle 1, Day 1, 8 h post-dose, 240 mg, n=6): 950.3 (825.3, 1094.2) ng ml | Gmean plasma concentration of AZD1208 (± SD) (Cycle 1, Day 1, 8 h post-dose, 480 mg, n=6): 2249.0 (1520.2, 3327.1) ng ml | Gmean plasma concentration of AZD1208 (± SD) (Cycle 1, Day 1, 8 h post-dose, 700 mg, n=7): 3284.7 (2253.3, 4788.2) ng ml | Gmean plasma concentration of AZD1208 (± SD) (Cycle 1, Day 1, 8 h post-dose, 900 mg, n=9): 3882.9 (2438.1, 6184.0) ng ml | Gmean plasma concentration of AZD1208 (± SD) (Cycle 1, Day 1, 24 h post-dose, 120 mg, n=3): 199.0 (75.6, 524.0) ng ml | Gmean plasma concentration of AZD1208 (± SD) (Cycle 1, Day 1, 24 h post-dose, 240 mg, n=6): 844.5 (598.4, 1191.8) ng ml | Gmean plasma concentration of AZD1208 (± SD) (Cycle 1, Day 1, 24 h post-dose, 480 mg, n=6): 2169.6 (1161.6, 4052.3) ng ml | Gmean plasma concentration of AZD1208 (± SD) (Cycle 1, Day 1, 24 h post-dose, 900 mg, n=9): 3045.2 (1664.2, 5572.3) ng ml | Gmean plasma concentration of AZD1208 (± SD) (Cycle 1, Day 1, pre-dose, 240 mg, n=6): 76.9 (NC) ng ml
